According to patent EP4005570B1, “P[…] USE IN TREATING RETT SYNDROME” (Prilenia Neurotherapeutics Ltd., priority 2016, dated 2018):
“And” between values parts separate entries of the source, which are not always exact repeats. Equal values may be shown once. Read-outs that look alike come from different tables or passages of the source.

Assays:
[1] = tested on: female MeCP2 (BIRD) mouse model of RTT; conditions: for Recovery (%) Gait / Recovery (%) Paw Features / Recovery (%) Paw Positioning / Recovery (%) Body Motion / Recovery (%) Rhythmicity: HET mice
Excerpt: (§1) Dosing commenced when mice were ~5.5 weeks of age and continued through the end of behavioral testing. Behavioral testing was done at 8 and 12 weeks of age.
(§2) Female MeCP2 ([…], HET) mice and wild type (MeCP2_WT, WT) littermates were received in two cohorts at ~4.5 weeks of age from Jackson Laboratories. They were assigned unique identification numbers and group-housed in opti-MICE cages (Animal Care Systems, CO). All animals were examined and weighed prior to initiation and throughout the study to assure adequate health and suitability and to minimize nonspecific stress associated with manipulation. During the course of the study, 12/12 light/dark cycle was maintained. The room temperature was maintained between 20 and 23°C with a relative humidity maintained around 50%. Chow and water was provided ad libitum for the duration of the study. The tests were performed during the animal's light cycle phase.
Mice were placed in the NeuroCube for a 5 min test. The most dominant of the features collected that define the disease phenotype (symptom descriptors) was identified and ranked. Complex bioinformatic algorithms were employed to calculate the discrimination probability between the WT and the BIRD mice and detect a test compound's ability to reverse the disease phenotype. Discriminations between mutant and wild type was calculated as well as the recovery of disease features in HET mice treated with the test compound.
The output of NeuroCube is a set of dozens of behavioral features that are submitted for analysis with machine learning techniques used in bioinformatics. Many of these features are correlated (e.g. rearing counts and supported rearing counts). Therefore, PGI forms statistically independent combinations of the original features (further referred to as de-correlated features) that discriminate between the two groups more effectively.
Each de-correlated feature extracts information from the whole cluster of the original features, so the new feature space has lower dimensionality. Next, PGI applies a proprietary feature ranking algorithm to score each feature's discrimination power (ability to separate the two groups, e.g. control and disease).
Ranking is an important part of the analyses because it weighs each feature change by its relevance: if there is a significant change in some irrelevant feature measured for a particular phenotype, the low rank of this feature will automatically reduce the effect of such change in the analyses, so there is no need to resort to the conventional "feature selection" approach and discard information buried in the less informative features. Ranking algorithm can be applied to either original or the new features to gain insight about the key control-disease differences (see Figure 1).
In the new feature space, the overlap between the "clouds" (Gaussian distributions approximating the groups of mice in the ranked de-correlated features space) serves as a quantitative measure of separability ("distinguishability") between the two groups (see Figure 2). For visualization purposes, each cloud was plotted with its semi-axes equal to the one standard deviation along the corresponding dimensions.

[2] = tested on: female MeCP2 (BIRD) mouse model of RTT
Excerpt: as §1, §2
(§3) Data from standard tests were analyzed by genotype (t-test) and by treatment (ANOVA) followed by post-hoc comparisons where appropriate. For some measures (i.e. body weights and PPI), repeated-measures ANOVAs were performed. For clasping data, N-1 two-proportional tests were performed. An effect was considered significant if p < 0.05. All data are represented as the mean and standard error to the mean (s.e.m). Values ± 2 standard deviations from the mean were considered outliers.

[3] = tested on: female MeCP2 (BIRD) mouse model of RTT; conditions: for startle response: vs vehicle-treated HET mice
Excerpt: as §1, §2
Mice were placed in the PPI chambers (Med Associates) for a 5 min session of white noise (70 dB) habituation.
The inter-trial interval was variable with an average of 15 s (range from 10 to 20 s).
as §3

BDNF = conditions: whole brain; 3 and 30 mg/kg BID; vs MeCP2_HET vehicle
Description: Mice were euthanized via cervical dislocation and decapitated. From 10 mice/treatment group, whole brains were collected, weighed, and then frozen on dry ice. Samples were stored at - 80°C until analysis of brain-derived neurotrophic factor (BDNF).
Once tissues were disrupted, samples were allowed to incubate at room temperate for 5 minutes.
Briefly, 150µL of Chloroform (Cat # C2432, Sigma-Aldrich, St. Louis, MO) was added and samples were shaken vigorously for 15 seconds followed by 3-minute incubation at room temperature. The aqueous phase was separated from the organic phase by centrifugation at 6,000 x g (Beckman Coulter Avanti J-30I), 4°C for 15 minutes. The aqueous phase was then transferred to a new 96-well block and total RNA was precipitated with equal volume of 70% ethanol. Content was transferred to an RNeasy 96-well plate, followed by centrifuge at 6,000-x g (Beckman Coulter Avanti J-30I), at room temperate for 4 minutes. […] RNA was eluted with RNase-Free water.
Samples were quantified using NanoDrop 8000 (Thermo Scientific). […]
Relative quantity of the PCR product (relative to the calibrator) was calculated as follows: [formula] […]
Geometric mean for the three housekeeping genes was calculated as follows: [formula]
Relative level of target gene was calculated as follows: Relative Quantity of Target gene÷Geometric mean of housekeeping genes [formula] […]

[4] = tested on: patient afflicted with RTT; conditions: periodic administration (daily or twice daily), intravenously or orally
neuroblastoma cell line = conditions: S1R-dependent manner (Geva 2016); cited from earlier work
[5] = 12 weeks, 30 mg/kg BID, 30 mg/kg
[6] = 12 weeks, 30 mg/kg BID, listed as pridopidine, 30 mg/kg

SMILES: CCCN1CCC(c2cccc(S(C)(=O)=O)c2)CC1 [Pridopidine, 4-[3-(methylsulfonyl)phenyl]-1-propyl-piperidine]
- gait measures ([1]; 3 mg/kg BID, compared with vehicle-treated mutants, age not stated): differed significantly
- recovery of overall gait features ([1]; 3 mg/kg, 8 weeks of age, Figure 8A): no recovery
- recovery of overall gait features ([1]; 3 mg/kg, 12 weeks of age, Figure 9A): no recovery
- recovery of overall gait features ([1]; 30 mg/kg, 8 weeks of age, Figure 8B): 45% and 55%
- recovery of overall gait features ([1]; 30 mg/kg, 8 weeks of age, Figure 8B, listed as pridopidine): significant recovery
- recovery of overall gait features ([1]; 30 mg/kg, 12 weeks of age, Figure 9B): 55%
- Recovery (%) Gait ([1]; 8 weeks, 3 mg/kg BID): 38%
- Recovery (%) Paw Features ([1]; 8 weeks, 3 mg/kg BID): 0%
- Recovery (%) Paw Positioning ([1]; 8 weeks, 3 mg/kg BID): 8%
- Recovery (%) Body Motion ([1]; 8 weeks, 3 mg/kg BID, 3 mg/kg): 82%
- Recovery (%) Body Motion ([1]; 8 weeks, 3 mg/kg BID, listed as pridopidine, 3 mg/kg): showed efficacy
- Recovery (%) Gait ([1]; 8 weeks, 30 mg/kg BID): 71%
- Recovery (%) Paw Features ([1]; 8 weeks, 30 mg/kg BID): 63%
- Recovery (%) Paw Positioning ([1]; 8 weeks, 30 mg/kg BID): 35%
- Recovery (%) Body Motion ([1]; 8 weeks, 30 mg/kg BID, 30 mg/kg): 84%
- Recovery (%) Body Motion ([1]; 8 weeks, 30 mg/kg BID, listed as pridopidine, 30 mg/kg): showed efficacy
- Recovery (%) Gait ([1]; 12 weeks, 3 mg/kg BID): 60%
- Recovery (%) Paw Features ([1]; 12 weeks, 3 mg/kg BID): 0%
- Recovery (%) Paw Positioning ([1]; 12 weeks, 3 mg/kg BID): 35%
- Recovery (%) Rhythmicity ([1]; 12 weeks, 3 mg/kg BID): 41%
- Recovery (%) Body Motion ([1]; 12 weeks, 3 mg/kg BID, 3 mg/kg): 65%
- Recovery (%) Body Motion ([1]; 12 weeks, 3 mg/kg BID, listed as pridopidine, 3 mg/kg): showed efficacy
- Recovery (%) Paw Features ([1]; 12 weeks, 30 mg/kg BID): 69%
- Recovery (%) Paw Positioning ([1]; 12 weeks, 30 mg/kg BID): 52%
- Recovery (%) Rhythmicity ([1]; 12 weeks, 30 mg/kg BID): 10%
- Recovery (%) Body Motion [1, 5]: 59%
- Recovery (%) Gait [1, 5]: 100%
- Recovery (%) Body Motion [1, 6]: showed efficacy
- Recovery (%) Gait [1, 6]: Significant effects
- hindlimb clasping ([2]; 3 mg/kg BID, 8 and 12 weeks, vs HET-vehicle): did not have a significant effect
- hindlimb clasping ([2]; 30 mg/kg BID, 12 weeks): this effect was not seen
- startle response ([3]; 3 mg/kg BID, both ages (8 and 12 weeks)): increased startle response
- startle response ([3]; 30 mg/kg BID): did not have a significant effect
- prepulse inhibition response ([3]; 3 and 30 mg/kg BID, HET mice): No genotype or treatment effects were observed
- BDNF I mRNA expression (BDNF): None of the treatments had a significant effect
- BDNF VI mRNA expression (BDNF): None of the treatments had a significant effect
- treatment of the patient afflicted with RTT [4]: effective to treat the patient
- secretion of the neuroprotective brain-derived neurotrophic factor (BDNF) (neuroblastoma cell line): enhances secretion
